# Tests used:
# [1] = target: Phosphatidylinositol 4,5-bisphosphate 3-kinase catalytic subunit beta isoform (Homo sapiens, UniProt P42338); assay: Inhibition of PI3Kbeta (unknown origin)
# [2] = target: T1, Phosphatidylinositol 4,5-bisphosphate 3-kinase catalytic subunit delta isoform (Homo sapiens, UniProt O00329); assay: Inhibition of PI3Kdelta (unknown origin)
# T1 sequence (O00329 whole entry): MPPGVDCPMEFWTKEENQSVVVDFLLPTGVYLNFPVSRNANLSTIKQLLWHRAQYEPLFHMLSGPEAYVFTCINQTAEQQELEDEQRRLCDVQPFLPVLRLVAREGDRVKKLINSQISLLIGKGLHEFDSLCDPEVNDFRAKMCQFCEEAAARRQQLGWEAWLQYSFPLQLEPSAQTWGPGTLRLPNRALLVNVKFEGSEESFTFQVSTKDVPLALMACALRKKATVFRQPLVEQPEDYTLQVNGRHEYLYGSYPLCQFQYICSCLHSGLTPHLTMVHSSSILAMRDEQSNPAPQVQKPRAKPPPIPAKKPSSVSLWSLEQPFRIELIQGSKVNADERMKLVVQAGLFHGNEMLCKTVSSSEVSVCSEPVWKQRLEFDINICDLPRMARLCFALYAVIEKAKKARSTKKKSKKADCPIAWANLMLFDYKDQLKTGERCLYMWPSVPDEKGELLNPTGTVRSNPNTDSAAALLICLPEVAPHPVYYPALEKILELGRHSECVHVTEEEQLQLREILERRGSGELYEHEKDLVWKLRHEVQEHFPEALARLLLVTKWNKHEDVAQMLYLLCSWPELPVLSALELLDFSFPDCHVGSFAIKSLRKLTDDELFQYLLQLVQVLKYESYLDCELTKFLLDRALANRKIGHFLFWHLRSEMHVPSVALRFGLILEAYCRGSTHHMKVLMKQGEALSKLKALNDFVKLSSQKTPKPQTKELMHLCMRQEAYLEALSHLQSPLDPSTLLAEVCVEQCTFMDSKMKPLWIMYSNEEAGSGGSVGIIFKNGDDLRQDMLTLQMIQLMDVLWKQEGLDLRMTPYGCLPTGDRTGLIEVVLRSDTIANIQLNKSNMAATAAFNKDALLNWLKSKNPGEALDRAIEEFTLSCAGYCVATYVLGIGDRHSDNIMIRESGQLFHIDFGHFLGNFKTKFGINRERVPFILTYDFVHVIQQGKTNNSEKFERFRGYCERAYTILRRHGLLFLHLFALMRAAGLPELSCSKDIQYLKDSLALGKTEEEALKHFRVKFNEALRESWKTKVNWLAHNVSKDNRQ
# Cytochrome P450 3A4 = Cytochrome P450 3A4 (Homo sapiens, UniProt P08684); assay: Inhibition of CYP3A4 (unknown origin); assay type: ADME
# Sequence of Cytochrome P450 3A4 (P08684 whole entry): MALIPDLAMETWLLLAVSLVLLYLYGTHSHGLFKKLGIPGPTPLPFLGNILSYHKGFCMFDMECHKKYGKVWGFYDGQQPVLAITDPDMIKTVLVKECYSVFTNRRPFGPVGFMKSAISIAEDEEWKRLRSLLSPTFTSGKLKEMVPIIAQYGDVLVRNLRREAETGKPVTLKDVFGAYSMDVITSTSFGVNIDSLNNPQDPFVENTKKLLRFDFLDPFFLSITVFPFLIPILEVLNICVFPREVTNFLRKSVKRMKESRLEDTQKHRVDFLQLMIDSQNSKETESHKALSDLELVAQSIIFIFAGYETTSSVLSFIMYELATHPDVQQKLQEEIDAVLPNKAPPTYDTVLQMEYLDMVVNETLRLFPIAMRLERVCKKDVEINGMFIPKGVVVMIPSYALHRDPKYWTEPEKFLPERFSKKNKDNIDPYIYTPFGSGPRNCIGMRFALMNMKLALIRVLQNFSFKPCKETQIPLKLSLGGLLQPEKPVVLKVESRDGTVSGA
# Cytochrome P450 2D6 = Cytochrome P450 2D6 (Homo sapiens, UniProt P10635); assay: Inhibition of CYP2D6 (unknown origin); assay type: ADME
# Sequence of Cytochrome P450 2D6 (P10635 whole entry): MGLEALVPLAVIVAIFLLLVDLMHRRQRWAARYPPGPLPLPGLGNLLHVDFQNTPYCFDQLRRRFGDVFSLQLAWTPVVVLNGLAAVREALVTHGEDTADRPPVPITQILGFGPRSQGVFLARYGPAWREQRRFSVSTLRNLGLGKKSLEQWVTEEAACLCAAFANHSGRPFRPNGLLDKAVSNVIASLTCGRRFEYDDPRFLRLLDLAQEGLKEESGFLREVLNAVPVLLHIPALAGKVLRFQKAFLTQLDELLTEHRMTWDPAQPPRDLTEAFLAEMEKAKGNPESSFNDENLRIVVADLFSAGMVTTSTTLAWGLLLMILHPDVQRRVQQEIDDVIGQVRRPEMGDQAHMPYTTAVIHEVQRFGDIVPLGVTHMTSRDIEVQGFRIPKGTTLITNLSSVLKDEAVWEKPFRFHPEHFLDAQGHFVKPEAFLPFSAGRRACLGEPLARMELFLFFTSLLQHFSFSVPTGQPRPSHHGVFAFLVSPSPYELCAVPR
# [3] = Metabolic stability in mouse liver microsomes assessed as intrinsic clearance at 1 uM incubated for 30 mins in presence of NADPH by LC-MS/MS analysis; assay type: ADME, Microsome; settings: read-out: CLH
# [4] = Metabolic stability in dog liver microsomes assessed as intrinsic clearance at 1 uM incubated for 30 mins in presence of NADPH by LC-MS/MS analysis; assay type: ADME, Canis lupus familiaris, Microsome; settings: read-out: CLH
# [5] = Metabolic stability in cynomolgus monkey liver microsomes assessed as intrinsic clearance at 1 uM incubated for 30 mins in presence of NADPH by LC-MS/MS analysis; assay type: ADME, Macaca fascicularis, Microsome; settings: read-out: CLH
# [6] = Efflux ratio of apparent permeability across basolateral to apical side over apical to basolateral side in MDCK-MDR1 cells; assay type: ADME, cell-based, Canis lupus familiaris; settings: dog
# [7] = Solubility of compound at pH 6.8; assay type: physicochemical; settings: buffer
# [8] = Phototoxicity against mouse BALB/3T3 clone A31 cells assessed as reduction in cell viability incubated for 1 hr followed by irradiated with 5 J/cm^2 of light dose measured after 24 hrs by neutral red uptake assay; assay type: toxicity, cell-based; settings: balb/3t3 clone a31, 1 h
# [9] = Genotoxicity in human TK6 cells assessed as micronuclei formation in presence of S9 fraction by micronucleus test; assay type: toxicity, subcellular
# [10] = AUC(0 to t) in C57BL/6 mouse at 1 mg/kg, iv measured upto 24 hrs by HPLC-MS analysis; assay type: ADME, organism-based; parameters: time < 24 hrs, dose 1 mg/kg, route iv; settings: in vivo
# [11] = Cmax in Sprague-Dawley rat at 3 mg/kg, po measured upto 24 hrs by HPLC-MS analysis; assay type: ADME, organism-based; parameters: dose 3 mg/kg, time < 24 hrs, route po; settings: in vivo
# [12] = Cmax in po dosed C57BL/6 mouse measured upto 24 hrs by HPLC-MS analysis; assay type: ADME, organism-based; parameters: time < 24 hrs, route po; settings: in vivo
# [13] = Tmax in C57BL/6 mouse at 1 mg/kg, iv and 3 mg/kg, ip measured upto 24 hrs by HPLC-MS analysis; assay type: ADME, organism-based; settings: in vivo
# [14] = Bioavailability in C57BL/6 mouse at 1 mg/kg, iv and 3 mg/kg, ip measured upto 24 hrs by HPLC-MS analysis; assay type: ADME, organism-based; settings: in vivo
# [15] = Volume of distribution at steady state in Sprague-Dawley rat at 3 mg/kg, po and 1 mg/kg, iv measured upto 24 hrs by HPLC-MS analysis; assay type: ADME, organism-based; settings: in vivo
# [16] = Half life in Sprague-Dawley rat at 3 mg/kg, po and 1 mg/kg, iv measured upto 24 hrs by HPLC-MS analysis; assay type: ADME, organism-based; settings: in vivo
# [17] = MRT(0 to t) in C57BL/6 mouse at 1 mg/kg, iv and 3 mg/kg, ip measured upto 24 hrs by HPLC-MS analysis; assay type: ADME, organism-based; settings: in vivo
# [18] = target: Serine/threonine-protein kinase mTOR (Mus musculus) (UniProt Q9JLN9); assay: Inhibition of mTOR in Tsc1 knockout mouse neurons assessed as reduction in phosphorylated S6 level incubated for 4 hrs by Hoechst staining based immunofluorescence analysis; assay type: cell-based; settings: Neuron, dose 5.0 µM
# [19] = Drug concentration in C57BL/6 mouse brain at 10 mg/kg, po measured after 1 hr; assay type: ADME, organism-based; settings: read-out: Ct
# [20] = Drug concentration in C57BL/6 mouse plasma at 10 mg/kg, po measured after 1 hr; assay type: ADME, organism-based
# [21] = Ratio of drug concentration in brain to plasma in C57BL/6 mouse at 30 mg/kg, po measured at 1 hr; assay type: ADME, organism-based; settings: brain and plasma, read-out: BPR
# [22] = Drug concentration in C57BL/6 mouse brain at 10 mg/kg, po measured after 3 hrs; assay type: ADME, organism-based; settings: read-out: Ct
# [23] = Drug concentration in C57BL/6 mouse brain at 30 mg/kg, po measured after 3 hrs; assay type: ADME, organism-based; settings: read-out: Ct
# [24] = Drug concentration in C57BL/6 mouse plasma at 10 mg/kg, po measured after 3 hrs; assay type: ADME, organism-based
# [25] = Drug concentration in C57BL/6 mouse plasma at 30 mg/kg, po measured after 3 hrs; assay type: ADME, organism-based
# [26] = Ratio of drug concentration in brain to plasma in C57BL/6 mouse at 10 mg/kg, po measured at 3 hrs; assay type: ADME, organism-based; settings: read-out: BPR
# [27] = Drug concentration in C57BL/6 mouse brain at 30 mg/kg, po measured after 24 hrs; assay type: ADME, organism-based; settings: read-out: Ct
# [28] = Drug concentration in C57BL/6 mouse plasma at 30 mg/kg, po measured after 24 hrs; assay type: ADME, organism-based
# Sequence of Phosphatidylinositol 4,5-bisphosphate 3-kinase catalytic subunit beta isoform (P42338 whole entry, canonical isoform): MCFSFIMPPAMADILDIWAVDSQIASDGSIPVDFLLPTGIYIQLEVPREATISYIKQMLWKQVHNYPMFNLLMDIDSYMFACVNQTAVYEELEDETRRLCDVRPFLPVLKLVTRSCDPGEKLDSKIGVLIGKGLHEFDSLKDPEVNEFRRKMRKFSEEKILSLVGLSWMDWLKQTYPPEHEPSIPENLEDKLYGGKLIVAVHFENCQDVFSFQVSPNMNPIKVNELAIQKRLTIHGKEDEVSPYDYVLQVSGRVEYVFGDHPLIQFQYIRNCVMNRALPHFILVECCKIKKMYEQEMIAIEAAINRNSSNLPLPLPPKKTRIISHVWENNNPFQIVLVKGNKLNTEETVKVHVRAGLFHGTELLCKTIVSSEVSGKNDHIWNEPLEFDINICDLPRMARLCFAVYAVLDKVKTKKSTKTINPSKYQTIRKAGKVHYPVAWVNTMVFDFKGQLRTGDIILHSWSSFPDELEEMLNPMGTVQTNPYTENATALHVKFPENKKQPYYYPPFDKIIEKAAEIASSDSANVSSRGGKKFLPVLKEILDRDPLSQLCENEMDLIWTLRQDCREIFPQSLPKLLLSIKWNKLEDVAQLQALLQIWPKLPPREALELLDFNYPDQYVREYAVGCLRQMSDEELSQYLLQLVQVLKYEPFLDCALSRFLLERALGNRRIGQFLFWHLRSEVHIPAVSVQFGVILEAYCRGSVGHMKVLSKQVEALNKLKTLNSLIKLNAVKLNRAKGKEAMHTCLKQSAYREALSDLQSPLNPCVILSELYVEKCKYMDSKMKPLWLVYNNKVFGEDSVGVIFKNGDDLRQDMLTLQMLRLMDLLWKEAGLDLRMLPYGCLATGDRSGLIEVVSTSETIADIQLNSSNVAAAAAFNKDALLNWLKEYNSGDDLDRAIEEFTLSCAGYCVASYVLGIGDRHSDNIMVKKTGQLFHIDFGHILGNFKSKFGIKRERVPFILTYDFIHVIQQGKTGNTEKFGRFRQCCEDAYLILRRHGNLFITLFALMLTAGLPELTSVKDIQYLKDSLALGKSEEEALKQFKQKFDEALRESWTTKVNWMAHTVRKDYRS
Compound,IC50 [1] [µM],IC50 [2] [µM],IC50 (Cytochrome P450 3A4) [µM],IC50 (Cytochrome P450 2D6) [µM],microsomal CLint at 1 µM [3] [µL/min/mg],microsomal CLint at 1 µM [4] [µL/min/mg],microsomal CLint at 1 µM [5] [µL/min/mg],efflux ratio [6],solubility [7] [µg/mL],Activity [8],Activity [9],Cmax [11] [nM],Cmax [12] [nM],Tmax [13] [h],bioavailability [14] [%],Vdss [15] [L/kg],half-life [16] [h],MRT last at 24 h [17] [h],inhibition [18],concentration at 1 h [19] [nM],also measured
C[C@@H]1COCCN1c1cc(N2CCOC[C@@H]2C)nc2[nH]c(-c3cscn3)nc12,> 10,> 10,> 50,> 50,13,10,31,0.87,20,Toxic,Non-Toxic,1730,1920,1.5,112,2.3,3,3.4,Dose-Dependent Effect,4270,"AUCt ([10]; mouse, 24 h): 10.377 µM·h; concentration at 1 h [20]: 4420 nM; Kp at 1 h [21]: 1.29; concentration at 3 h [22]: 3250 nM; concentration at 3 h [23]: 6320 nM; concentration at 3 h [24]: 5520 nM; concentration at 3 h [25]: 8420 nM; Kp at 3 h [26]: 0.59; concentration at 24 h [27]: 4650 nM; concentration at 24 h [28]: 7020 nM"
C[C@@H]1COCCN1c1cc(N2CCOC[C@@H]2C)nc2[nH]c(-c3ccccn3)nc12,> 10,> 10,> 50,> 50,24,19,115,0.48,180,Non-Toxic,Non-Toxic,5050,1260,0.4,98,0.7,2.6,2.3,Dose-Dependent Effect,1490,"AUC(0-t) at 24 h ([10]; C57BL/6, mouse): 2.22 µM·h; concentration at 1 h [20]: 2480 nM; Kp at 1 h [21]: 1.03; concentration at 3 h [22]: 1110 nM; concentration at 3 h [23]: 2720 nM; concentration at 3 h [24]: 2160 nM; concentration at 3 h [25]: 4160 nM; Kp at 3 h [26]: 0.51; concentration at 24 h [27]: 790 nM; concentration at 24 h [28]: 1120 nM"

# From ChEMBL document CHEMBL5331134, “Identification of Brain-Penetrant ATP-Competitive mTOR Inhibitors for CNS Syndromes” (J Med Chem, 2023)
